In ChEMBL document CHEMBL2016536, “New triazole derivatives as antifungal agents: synthesis via click reaction, in vitro evaluation and molecular docking studies” (2012):
In brackets after ≈: the same amount, converted by molar mass.

How the values were obtained:
Format in all cases: functional
[1] = system: Candida tropicalis; test: Antifungal activity against Candida tropicalis by microbroth dilution method
[2] = system: Candida parapsilosis; test: Antifungal activity against Candida parapsilosis by microbroth dilution method; details: Lodderomyces parapsilosis
[3] = system: Trichophyton rubrum; test: Antifungal activity against Trichophyton rubrum by microbroth dilution method
[4] = system: Candida albicans; test: Antifungal activity against Candida albicans Y0109 after 24 hrs by microbroth dilution method; details: Y0109, 24 h
[5] = system: Kluyveromyces marxianus; test: Antifungal activity against Candida kefyr by microbroth dilution method
[6] = system: Candida albicans; test: Antifungal activity against Candida albicans SC5314 after 24 hrs by microbroth dilution method; details: SC5314, 24 h
[7] = system: Cryptococcus neoformans; test: Antifungal activity against Cryptococcus neoformans after 72 hrs by microbroth dilution method
[8] = system: Aspergillus fumigatus; test: Antifungal activity against Aspergillus fumigatus by microbroth dilution method
[9] = system: Kluyveromyces marxianus; test: Ratio of MIC80 for fluconazole to compound for Candida kefyr by microbroth dilution method
[10] = system: Candida albicans; test: Ratio of MIC80 for fluconazole to compound for Candida albicans SC5314 after 24 hrs by microbroth dilution method

MIC80 [1] [µg/mL]	MIC80 [2] [µg/mL]	MIC80 [3] [µg/mL]	MIC80 [4] [µg/mL]	MIC80 [5] [µg/mL]	MIC80 [6] [µg/mL]	MIC80 [7] [µg/mL]	MIC80 [8] [µg/mL]	SMILES	Ratio [9]	Ratio [10]
0.0625 (≈ 0.151 µM)	0.125 (≈ 0.302 µM)	0.125 (≈ 0.302 µM)	0.0625 (≈ 0.151 µM)	0.0625 (≈ 0.151 µM)	0.0625 (≈ 0.151 µM)	0.125 (≈ 0.302 µM)	16 (≈ 38.6 µM)	OC(Cc1cn(Cc2ccccc2F)nn1)(Cn1cncn1)c1ccc(F)cc1F (configuration not stated)	–	–
0.25 (≈ 0.603 µM)	0.125 (≈ 0.302 µM)	0.25 (≈ 0.603 µM)	0.0625 (≈ 0.151 µM)	0.0625 (≈ 0.151 µM)	< 0.125	0.25 (≈ 0.603 µM)	32 (≈ 77.2 µM)	OC(Cc1cn(Cc2cccc(F)c2)nn1)(Cn1cncn1)c1ccc(F)cc1F (configuration not stated)	–	–
0.25 (≈ 0.603 µM)	0.125 (≈ 0.302 µM)	0.125 (≈ 0.302 µM)	0.0625 (≈ 0.151 µM)	0.0625 (≈ 0.151 µM)	< 0.125	0.25 (≈ 0.603 µM)	32 (≈ 77.2 µM)	OC(Cc1cn(Cc2ccc(F)cc2)nn1)(Cn1cncn1)c1ccc(F)cc1F (configuration not stated)	–	–
0.0625 (≈ 0.145 µM)	0.0625 (≈ 0.145 µM)	0.25 (≈ 0.58 µM)	0.0625 (≈ 0.145 µM)	0.125 (≈ 0.29 µM)	0.0625 (≈ 0.145 µM)	0.25 (≈ 0.58 µM)	16 (≈ 37.1 µM)	OC(Cc1cn(Cc2ccccc2Cl)nn1)(Cn1cncn1)c1ccc(F)cc1F (configuration not stated)	–	–
0.25 (≈ 0.58 µM)	0.125 (≈ 0.29 µM)	0.125 (≈ 0.29 µM)	0.0625 (≈ 0.145 µM)	0.0625 (≈ 0.145 µM)	< 0.125	0.5 (≈ 1.16 µM)	8 (≈ 18.6 µM)	OC(Cc1cn(Cc2cccc(Cl)c2)nn1)(Cn1cncn1)c1ccc(F)cc1F (configuration not stated)	–	–
0.5 (≈ 1.16 µM)	0.125 (≈ 0.29 µM)	0.125 (≈ 0.29 µM)	0.0625 (≈ 0.145 µM)	0.0625 (≈ 0.145 µM)	< 0.125	0.25 (≈ 0.58 µM)	4 (≈ 9.28 µM)	OC(Cc1cn(Cc2ccc(Cl)cc2)nn1)(Cn1cncn1)c1ccc(F)cc1F (configuration not stated)	–	–
0.0625 (≈ 0.131 µM)	0.0625 (≈ 0.131 µM)	0.25 (≈ 0.526 µM)	0.0625 (≈ 0.131 µM)	0.0625 (≈ 0.131 µM)	0.0625 (≈ 0.131 µM)	0.25 (≈ 0.526 µM)	4 (≈ 8.42 µM)	OC(Cc1cn(Cc2ccccc2Br)nn1)(Cn1cncn1)c1ccc(F)cc1F (configuration not stated)	–	–
0.25 (≈ 0.526 µM)	0.125 (≈ 0.263 µM)	0.25 (≈ 0.526 µM)	0.0625 (≈ 0.131 µM)	0.125 (≈ 0.263 µM)	< 0.125	0.25 (≈ 0.526 µM)	8 (≈ 16.8 µM)	OC(Cc1cn(Cc2cccc(Br)c2)nn1)(Cn1cncn1)c1ccc(F)cc1F (configuration not stated)	–	–
0.25 (≈ 0.526 µM)	0.125 (≈ 0.263 µM)	0.125 (≈ 0.263 µM)	0.0625 (≈ 0.131 µM)	0.0625 (≈ 0.131 µM)	0.0625 (≈ 0.131 µM)	0.25 (≈ 0.526 µM)	8 (≈ 16.8 µM)	OC(Cc1cn(Cc2ccc(Br)cc2)nn1)(Cn1cncn1)c1ccc(F)cc1F (configuration not stated)	–	–
0.125 (≈ 0.305 µM)	0.0625 (≈ 0.152 µM)	0.0625 (≈ 0.152 µM)	0.0156 (≈ 0.038 µM)	0.0039 (≈ 0.0095 µM)	0.0625 (≈ 0.152 µM)	0.125 (≈ 0.305 µM)	2 (≈ 4.87 µM)	Cc1ccccc1Cn1cc(CC(O)(Cn2cncn2)c2ccc(F)cc2F)nn1 (configuration not stated)	–	–
0.125 (≈ 0.305 µM)	0.0625 (≈ 0.152 µM)	0.0625 (≈ 0.152 µM)	0.0156 (≈ 0.038 µM)	0.0156 (≈ 0.038 µM)	0.0625 (≈ 0.152 µM)	0.125 (≈ 0.305 µM)	4 (≈ 9.75 µM)	Cc1cccc(Cn2cc(CC(O)(Cn3cncn3)c3ccc(F)cc3F)nn2)c1 (configuration not stated)	–	–
0.125 (≈ 0.305 µM)	0.0625 (≈ 0.152 µM)	0.0625 (≈ 0.152 µM)	0.0039 (≈ 0.0095 µM)	0.0156 (≈ 0.038 µM)	0.0156 (≈ 0.038 µM)	0.125 (≈ 0.305 µM)	2 (≈ 4.87 µM)	Cc1ccc(Cn2cc(CC(O)(Cn3cncn3)c3ccc(F)cc3F)nn2)cc1 (configuration not stated)	256	128
0.125 (≈ 0.283 µM)	< 0.25	0.25 (≈ 0.566 µM)	0.0625 (≈ 0.142 µM)	0.0625 (≈ 0.142 µM)	< 0.125	0.5 (≈ 1.13 µM)	32 (≈ 72.5 µM)	O=[N+]([O-])c1ccccc1Cn1cc(CC(O)(Cn2cncn2)c2ccc(F)cc2F)nn1 (configuration not stated)	–	–
0.125 (≈ 0.283 µM)	< 0.25	0.25 (≈ 0.566 µM)	0.0625 (≈ 0.142 µM)	0.0625 (≈ 0.142 µM)	< 0.125	0.5 (≈ 1.13 µM)	32 (≈ 72.5 µM)	O=[N+]([O-])c1cccc(Cn2cc(CC(O)(Cn3cncn3)c3ccc(F)cc3F)nn2)c1 (configuration not stated)	–	–
0.125 (≈ 0.283 µM)	0.25 (≈ 0.566 µM)	0.25 (≈ 0.566 µM)	0.0625 (≈ 0.142 µM)	0.0625 (≈ 0.142 µM)	< 0.125	0.5 (≈ 1.13 µM)	16 (≈ 36.2 µM)	O=[N+]([O-])c1ccc(Cn2cc(CC(O)(Cn3cncn3)c3ccc(F)cc3F)nn2)cc1 (configuration not stated)	–	–
